Laboratory results published in patent US20220265655A1, “METHODS OF TREATING INFLAMMATORY DISEASES” (Ribon Therapeutics, Inc., priority 2021, published 2022).

How the values were obtained:
[1] = tested on: Alternaria sensitized mice challenged with Alternaria; conditions: Compound 2 500 mg/kg b.i.d., Compound 1 500 mg/kg with 1-ABT 25 mg/kg b.i.d.
[2] = tested on: DNCB-induced atopic dermatitis model; test: DNCB-induced atopic dermatitis model (Example D)
[3] = tested on: IMQ-induced psoriasis model; test: Imiquimod (IMQ)-induced psoriasis model (Example E)
[4] = tested on: BLM-induced pulmonary fibrosis model
Experimental: BLM-induced pulmonary fibrosis is an established disease model for IPF. In the model, alveolar injury and interstitial inflammation/fibrosis are induced by intracheal BLM administration.
Formulations (50 μL/vial) were kept for dose verification on the first and last dosing day (2 vials each, total 4 vials).
At Day 0, 40 mice were induced to develop pulmonary fibrosis by a single intratracheal administration of bleomycin hydrochloride (BLM, Nippon Kayaku, Japan) in PBS at a dose of 3.0 mg/kg, in a volume of 50 μL per animal using Microsprayer® (Penn-Century, USA) under a mixture of medetomidine (0.75 mg/kg), midazolam (4 mg/kg) and butorphanol (5 mg/kg) anesthesia by intraperitoneal administration in a volume of 10 mL/kg. […] Five mice were intratracheally administered PBS, instead of the BLM, which served as the Sham group.
Tofacitinib was administered orally at a dose of 50 mg/kg in a volume of 10 mL/kg twice daily (total of 100 mg/kg/day).
The viability, clinical signs and behavior were monitored daily. Body weight was recorded daily from Day 0. Dosing volume was adjusted based on the latest body weight. […] The animals were sacrificed on Day 14 by exsanguination through the abdominal vena cava under a mixture of medetomidine, midazolam and butorphanol anesthesia. The time of the dosing and termination was recorded. The left and post-caval lobe weight for all mice were recorded.
For Group 2-4, BALF samples were collected by flushing the lung via the trachea with sterile PBS three times (1st BALF, 2nd BALF and 3rd BALF, 0.8 mL each) at sacrifice under a mixture of medetomidine, midazolam and butorphanol anesthesia. The 1st BALF was centrifuged at 3,000×g for 5 min at 4° C. and the supernatant was collected and stored at −80° C. The cell pellet from the first fraction (1st BALF) was resuspended and added to the remaining fractions of lavage fluid (2nd and 3rd BALF). The total BALF was centrifuged at 1,000×g for 5 min at 4° C. and the supernatant was removed. Ammonium-Chloride-Potassium (ACK) lysing buffer was added to the pellet and washed for lysis of erythrocytes. After addition of cold PBS, the fluid was centrifuged at 1,000×g for 3 min at 4° C. and the supernatant was removed. Resuspended in PBS and total cell number of BALF was counted using a hemocytometer (C-Chip disposable hemocytometer, Digital Bio). After counting the total cells, the cell suspension was re-suspended in PBS to 5×10^5 cells/mL. A smear sample was then prepared by spotting 100 μL of cell suspension onto slides, and air-dried using a dryer on cool setting.
Indwelling needle was inserted into trachea and connected to instillation route of syringe. The syringe was loaded with 10% neutral buffered formalin and kept at the height of 20 cm. […] The three unfixed lobes were washed with cold saline and measured wet weight.
To quantify lung hydroxyproline content, frozen left lung samples were processed by an acid hydrolysis method as follows. […] AC buffer (2.2M acetic acid/0.48M citric acid, 200 μL) was added to the samples, followed by centrifugation to collect the supernatant. […] The samples were then mixed with Ehrlich's solution (300 μL) and heated at 65° C. for 20 minutes to develop the color. After samples were cooled on ice and centrifuged to remove precipitates, the optical density of each supernatant was measured at 560 nm. The concentrations of hydroxyproline were calculated from the hydroxyproline standard curve. Lung hydroxyproline levels were expressed as […] per left lung.
For Group 2-4, BALF IL-4, IL-6, IL-10 and IL-17 levels were quantified by Quantikine enzyme linked immunosorbent assay kits (code. M4000B for IL-4, code. M6000B for IL-6, code. M1000B for IL-10, code. M1700 for IL-17, R&D systems) according to manufacturer instructions.
For Masson's Trichrome staining, the sections were deparaffinized and rehydrated, followed by re-fixation with Bouin's solution for 15 min.

[5] = tested on: OXZ-induced colitis mouse model; conditions: Compound 1 1,000 mg/kg PO BID; tofacitinib 10 mg/kg PO BID
[6] = ratio (percentage) of BALF cells, mean ± SD

With `O=c1[nH]c(CS[C@H]2CC[C@H](O)CC2)nc2cc(OCC3CC3)cc(F)c12` [Compound 2, 7-(Cyclopropylmethoxy)-5-fluoro-2-(((trans-4-hydroxycyclohexyl)thio)methyl)quinazolin-4(3H)-one] the “IgE blood serum levels” value [1] was “reduced”, the “levels of IL4, IL-5, IL-13, and IL-33 in BAL fluid” value [1] was “reduced” and the “levels of IL4, IL-5, IL-13, and IL-33 in lung tissue” value [1] was “reduced”. The “levels of eosinophils in BAL fluid” value [1] was “reduced”, the “levels of neutrophils in BAL fluid” value [1] was “reduced” and the “airway mucus in lung tissue” value ([1]; days 19-25) was “reduced”.
`C[C@@H]1C[C@H]2[C@@H]3CCC4=CC(=O)C=C[C@]4(C)[C@@]3(F)[C@@H](O)C[C@]2(C)[C@@]1(O)C(=O)CO` [DEX, Dexamethasone] was tested, and the “inhibition rate of clinical scoring (AUC of total clinical score) compared to vehicle” value ([2]; Compound 1 500 mg/kg PO BID, DEX ointment 70 mg topical QD, P<0.0001) was 43.5%, the “total clinical score, peak / high values” ([2]; Compound 1: peak on Day 17, DEX: high clinical scores, vehicle peak 11.9 on Day 17) was 6-7 and the bodyweight ([2]; monitored daily, Compound 1 500 mg/kg PO BID, DEX ointment topical QD) was “caused decreases in bodyweight”. For the same molecule, the “inhibition rate of clinical scoring (AUC of total clinical score)” value ([3]; Compound 1 500 mg/kg PO BID (P<0.001), DEX ointment 70 mg topical QD (P<0.0001)) was 87.7% and the bodyweight ([3]; monitored daily, consecutive IMQ treatment and dosing) was “caused decreases in bodyweight”.
With `C[C@@H]1CCN(C(=O)CC#N)C[C@@H]1N(C)c1ncnc2[nH]ccc12` [Tofacitinib free base, Tofacitinib] the “mean body weight changes (% of Day 0) compared with Vehicle group” value ([4]; Compound 1 500 mg/kg PO BID, Tofacitinib free base 50 mg/kg PO BID, Day 1-14) was “significantly higher than that of the Vehicle group from Day 6 to Day 14”, the “Left lung weight” value ([4]; Day 14, mean ± SD) was 101 ± 9 mg and the Post-caval lobe weight ([4]; Day 14, mean ± SD) was 27 ± 4. The “Right inferior lobe weight” value ([4]; Day 14, mean ± SD) was 84 ± 14, the Ashcroft score ([4]; Masson's trichrome-stained lung sections, mean ± SD) was 2.2 ± 1.2 and the “mice found dead during the treatment period” value ([4]; before reaching Day 14) was “no dead animals”. For the same molecule, the “bodyweight” value ([4]; day of sacrifice (Day 14), mean ± SD) was 18.1 ± 1.7 g, the “BALF IL-6” value ([4]; mean ± SD) was 4.4 ± 5.5 pg/mL and the “Lung hydroxyproline (μg/left lung)” value ([4]; mean ± SD) was 49.3 ± 8.3 μg/left lung. For the same molecule, the “Total cells (×10^4) in BALF” value ([4]; mean ± SD) was 83.8 ± 50.0 ×10^4, the “BALF IL-10” value ([4]; mean ± SD, Compound 1 (n = 6), Tofacitinib free base (n = 1)) was 2.9 pg/mL and the “mean body weight on the day of sacrifice compared with the Vehicle group” value ([4]; mouse, in vivo) was “increasing trend”. The “mean right inferior lobe weight compared with the Vehicle group” value ([4]; mouse, in vivo) was “significant decreases”, the “total number of cells in BALF compared with the Vehicle group” value ([4]; mouse, in vivo) was “no significant difference” and the “Eosinophil in BALF” value ([4]; ratio (percentage) of BALF cells) was 0.0. The “Lymphocyte in BALF” value [4, 6] was 11.7 ± 14.5, the “Monocyte in BALF” value [4, 6] was 88.0 ± 15.2 and the “Neutrophil in BALF” value [4, 6] was 0.3 ± 0.9. For the same molecule, the “AUC of body weight change, difference to vehicle group” value [5] was “a statistical difference was not seen”, the “AUC of the DAI score in comparison to vehicle” value [5] was “suppressed” and the “DAI score in comparison to vehicle treated mice” value [5] was “suppressed”. The “body weight loss compared with vehicle group” value [5] was “suppressed”, the “colon density (increase induced by OXZ)” value [5] was “also suppressed” and the “colon histology (H&E staining) compared to the vehicle group” value [5] was “appeared similar to the sham group”. For the same molecule, the “colon length (reduction induced by OXZ)” value [5] was “also suppressed”, the “colon weight (increase induced by OXZ)” value [5] was “also suppressed” and the “pathological score of colitis severity in comparison to the vehicle control group” value [5] was “increased integrity of the crypt structure, less inflammatory cell infiltration, reduced muscle thickening and less crypt abscess”.
